Data taken from patent US20220257540A1, “COMPOSITIONS AND METHODS FOR TREATMENT OF HEPATITIS B VIRUS INFECTION” (ANHUI RONGHANG BIOTECH DEVELOPMENT CO., LTD., priority 2019, published 2022).
Read-outs that look alike come from different tables or passages of the source.

Assays:
P-gp = P-gp (Homo sapiens, UniProt P08183); conditions: cited from earlier work
HBV GT C = assay: In vitro anti-HBV efficacy in HBV-infected PXB-cells; type: cell-based; conditions: for Extracellular HBV DNA / Extracellular HBsAg / Intracellular HBV DNA / Intracellular cccDNA / anti-HBV efficacy: Day 27; for Extracellular HBeAg: Day 27, 10 fold diluted sample; for anti-HBV efficacy: HBV-infected PXB-cells
Protocol: Materials & Methods: PXB-cells was infected with HBV GT C. […] The anti-HBV therapeutic efficacy was measured by the analysis of extracellular HBV DNA, HBsAg, HBeAg, h-Alb, and intracellular HBV DNA/cceDNA levels. Entecavir was used as the positive control. The hepatocytes isolated from 3 mice were combined to seed culture plate. The cell density of mixed cell was 7.37×10^6 cells/mL. PXB-cells® are the fresh hepatocytes which are isolated from PXB-mice. Cells viability after isolation: >80%. Donor Hepatocytes were purchased from Corning, Incorporated (Tewksbury, Mass., USA), Lot: BD195 ([…]). […] Entecavir was purchased from Santa-cruz, Lot: 10914, Concentration: 1 mM. Plates was observed under microscopy and photographed.

liver fibrosis = conditions: rats with carbon tetrachloride induced cirrhosis; cited from earlier work
[1] = tested on: HBV-related postnecrotic cirrhosis; conditions: double-blind controlled trial, 100 patients; cited from earlier work
[2] = cited from earlier work; for Peak blood level (Cmax) / Exposure (area under the curve) / terminal half-life: fasted healthy volunteers; for mean Cmax: healthy adults, capsules orally
chronic Hepatitis B = conditions: 1 mg a day orally for 5 days-a-week over 6 months, cited from earlier work
[3] = ingested more than 0.8 mg/kg; cited from earlier work

Chain of P-gp (P08183 whole entry): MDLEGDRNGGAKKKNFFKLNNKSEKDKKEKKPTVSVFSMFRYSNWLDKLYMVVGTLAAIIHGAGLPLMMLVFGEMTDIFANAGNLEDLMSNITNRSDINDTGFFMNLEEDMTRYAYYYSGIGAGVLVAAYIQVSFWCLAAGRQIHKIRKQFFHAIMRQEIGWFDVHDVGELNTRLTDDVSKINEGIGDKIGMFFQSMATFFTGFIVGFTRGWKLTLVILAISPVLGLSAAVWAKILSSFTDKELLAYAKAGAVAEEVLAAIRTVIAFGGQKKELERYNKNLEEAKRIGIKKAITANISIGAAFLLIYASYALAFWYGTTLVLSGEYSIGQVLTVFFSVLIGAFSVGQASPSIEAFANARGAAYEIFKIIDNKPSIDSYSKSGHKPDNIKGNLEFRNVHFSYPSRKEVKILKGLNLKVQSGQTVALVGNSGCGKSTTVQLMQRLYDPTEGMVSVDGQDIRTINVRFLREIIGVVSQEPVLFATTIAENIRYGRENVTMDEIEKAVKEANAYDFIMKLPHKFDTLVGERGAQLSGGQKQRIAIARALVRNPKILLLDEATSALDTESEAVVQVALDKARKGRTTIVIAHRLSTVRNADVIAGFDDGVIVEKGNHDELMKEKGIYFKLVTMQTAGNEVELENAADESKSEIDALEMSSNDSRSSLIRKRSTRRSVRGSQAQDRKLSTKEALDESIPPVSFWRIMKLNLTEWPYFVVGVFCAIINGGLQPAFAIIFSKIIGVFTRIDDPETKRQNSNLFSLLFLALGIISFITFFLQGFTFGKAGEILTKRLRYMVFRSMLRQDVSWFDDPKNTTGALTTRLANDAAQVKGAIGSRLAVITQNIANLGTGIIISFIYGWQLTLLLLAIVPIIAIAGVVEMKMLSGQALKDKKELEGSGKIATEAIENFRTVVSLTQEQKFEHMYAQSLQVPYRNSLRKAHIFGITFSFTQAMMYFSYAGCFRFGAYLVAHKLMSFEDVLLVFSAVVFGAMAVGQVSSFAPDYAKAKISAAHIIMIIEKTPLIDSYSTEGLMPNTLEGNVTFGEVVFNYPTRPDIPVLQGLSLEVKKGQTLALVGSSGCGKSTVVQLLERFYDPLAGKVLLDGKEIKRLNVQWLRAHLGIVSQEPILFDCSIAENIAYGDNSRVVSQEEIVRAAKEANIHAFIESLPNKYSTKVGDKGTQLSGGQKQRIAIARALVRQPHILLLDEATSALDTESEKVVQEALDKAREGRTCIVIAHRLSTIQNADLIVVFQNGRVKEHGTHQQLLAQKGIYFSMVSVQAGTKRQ

COc1cc2c(cc1OC)CN(CCc1ccc(NC(=O)c3cc(OC)c(OC)cc3NC(=O)c3cnc4ccccc4c3)cc1)CC2 [XR9576, N-[2-[[4-[2-(6,7-Dimethoxy-3,4-dihydro-1H-isoquinolin-2-yl)ethyl]phenyl]c-arbamoyl]-4,5-dimethoxyphenyl]quinoline-3-carboxamide]
potency relative to the first and second-generation P-gp inhibitors (P-gp): about 10 fold

C=C1[C@H](CO)[C@@H](O)C[C@@H]1n1cnc2c(=O)[nH]c(N)nc21 [Entecavir]
Extracellular HBV DNA (HBV GT C; Entecavir 9.8 pM): 6.36 Log copies/mL
Extracellular HBsAg (HBV GT C; Entecavir 9.8 pM): 16.0 IU/mL
Intracellular HBV DNA (HBV GT C; Entecavir 9.8 pM): 91546 copies/100 ng DNA
Intracellular cccDNA (HBV GT C; Entecavir 9.8 pM): 125 copies/100 ng DNA
Extracellular HBeAg (HBV GT C; Entecavir 9.8 pM): 11.6 C.O.I
Extracellular HBV DNA (HBV GT C; Entecavir 19.5 pM): 5.76 Log copies/mL
Extracellular HBsAg (HBV GT C; Entecavir 19.5 pM): 14.2 IU/mL
Intracellular HBV DNA (HBV GT C; Entecavir 19.5 pM): 53766 copies/100 ng DNA
Intracellular cccDNA (HBV GT C; Entecavir 19.5 pM): 82 copies/100 ng DNA
Extracellular HBeAg (HBV GT C; Entecavir 19.5 pM): 10.0 C.O.I
Extracellular HBV DNA (HBV GT C; Entecavir 39.1 pM): 5.06 Log copies/mL
Extracellular HBsAg (HBV GT C; Entecavir 39.1 pM): 12.2 IU/mL
Intracellular HBV DNA (HBV GT C; Entecavir 39.1 pM): 30701 copies/100 ng DNA
Intracellular cccDNA (HBV GT C; Entecavir 39.1 pM): 69 copies/100 ng DNA
Extracellular HBeAg (HBV GT C; Entecavir 39.1 pM): 8.1 C.O.I
Extracellular HBV DNA (HBV GT C; Entecavir 78.1 pM): 4.66 Log copies/mL
Extracellular HBsAg (HBV GT C; Entecavir 78.1 pM): 15.7 IU/mL
Intracellular HBV DNA (HBV GT C; Entecavir 78.1 pM): 14257 copies/100 ng DNA
Intracellular cccDNA (HBV GT C; Entecavir 78.1 pM): 82 copies/100 ng DNA
Extracellular HBeAg (HBV GT C; Entecavir 78.1 pM): 9.8 C.O.I
Extracellular HBV DNA (HBV GT C; Entecavir 156.3 pM): 4.56 Log copies/mL
Extracellular HBsAg (HBV GT C; Entecavir 156.3 pM): 15.1 IU/mL
Intracellular HBV DNA (HBV GT C; Entecavir 156.3 pM): 5620 copies/100 ng DNA
Intracellular cccDNA (HBV GT C; Entecavir 156.3 pM): 61 copies/100 ng DNA
Extracellular HBeAg (HBV GT C; Entecavir 156.3 pM): 9.6 C.O.I
Extracellular HBV DNA (HBV GT C; Entecavir 312.5 pM): 4.46 Log copies/mL
Extracellular HBsAg (HBV GT C; Entecavir 312.5 pM): 14.3 IU/mL
Intracellular HBV DNA (HBV GT C; Entecavir 312.5 pM): 3752 copies/100 ng DNA
Intracellular cccDNA (HBV GT C; Entecavir 312.5 pM): 34 copies/100 ng DNA
Extracellular HBeAg (HBV GT C; Entecavir 312.5 pM): 9.4 C.O.I
Extracellular HBV DNA (HBV GT C; Entecavir 625 pM): 4.46 Log copies/mL
Extracellular HBsAg (HBV GT C; Entecavir 625 pM): 13.0 IU/mL
Intracellular HBV DNA (HBV GT C; Entecavir 625 pM): 2954 copies/100 ng DNA
Intracellular cccDNA (HBV GT C; Entecavir 625 pM): +
Extracellular HBeAg (HBV GT C; Entecavir 625 pM): 8.9 C.O.I
Extracellular HBV DNA (HBV GT C; Entecavir 1.25 nM): 4.46 Log copies/mL
Extracellular HBsAg (HBV GT C; Entecavir 1.25 nM): 11.2 IU/mL
Intracellular HBV DNA (HBV GT C; Entecavir 1.25 nM): 3031 copies/100 ng DNA
Intracellular cccDNA (HBV GT C; Entecavir 1.25 nM): +
Extracellular HBeAg (HBV GT C; Entecavir 1.25 nM): 6.9 C.O.I
Extracellular HBV DNA (HBV GT C; Entecavir 5 nM): 4.26 Log copies/mL
Extracellular HBsAg (HBV GT C; Entecavir 5 nM): 10.9 IU/mL
Intracellular HBV DNA (HBV GT C; Entecavir 5 nM): 2974 copies/100 ng DNA
Intracellular cccDNA (HBV GT C; Entecavir 5 nM): 33 copies/100 ng DNA
Extracellular HBeAg (HBV GT C; Entecavir 5 nM): 7.1 C.O.I
Extracellular HBV DNA (HBV GT C; Entecavir 10 nM): 4.46 Log copies/mL
Extracellular HBsAg (HBV GT C; Entecavir 10 nM): 11.6 IU/mL
Intracellular HBV DNA (HBV GT C; Entecavir 10 nM): 2936 copies/100 ng DNA
Intracellular cccDNA (HBV GT C; Entecavir 10 nM): +
Extracellular HBeAg (HBV GT C; Entecavir 10 nM): 7.4 C.O.I
anti-HBV efficacy (HBV GT C): anti-HBV efficacy in a dose dependent manner

CCOC/C=C/c1ccc(-c2nc(-c3ccc(NC(C)C)cc3)c(-c3ccc(NC(C)C)cc3)[nH]2)cc1 [OC144093, 4-[2-[4-[(E)-3-ethoxyprop-1-enyl]phenyl]-4-[4-(propan-2-ylamino)phenyl]-1H-imidazol-5-yl]-N-propan-2-ylaniline]
potency relative to the first and second-generation P-gp inhibitors (P-gp): about 10 fold

COc1cc2c(c(OC)c1OC)-c1ccc(OC)c(=O)cc1[C@@H](NC(C)=O)CC2 [Colchicine, N [5,6,7,9-tetrahydro-1,2,3,10-tetratmethoxy 9-oxobenzo[a]heptalen-7-yl], (S)-acetamide]
liver fibrosis (liver fibrosis): decrease liver fibrosis
effect in the treatment of HBV-related postnecrotic cirrhosis [1]: no effect
Peak blood level (Cmax) ([2]; high-dose (1.2 mg followed by 0.6 mg every hour for 6 h; 4.8 mg total)): 6.84 ng/mL
Exposure (area under the curve) ([2]; high-dose (4.8 mg total)): 118.2 ng/h/mL
terminal half-life ([2]; high-dose (4.8 mg total)): 31.4 h
Peak blood level (Cmax) ([2]; low-dose (1.2 mg followed by 0.6 mg in 1 h; 1.8 mg total)): 6.19 ng/mL
Exposure (area under the curve) ([2]; low-dose (1.8 mg total)): 52.1 ng/h/mL
terminal half-life ([2]; low-dose (1.8 mg total)): 23.6 h
Exposure (area under the curve) ([2]; single dose (0.6 mg)): 14.1 ng/h/mL
terminal half-life ([2]; single dose (0.6 mg)): 6.36 h
mean Cmax ([2]; 0.6 mg single dose): 3 ng/mL
mean Cmax ([2]; 1.0 mg single dose): 6.50 ± 1.03 ng/mL
Absolute bioavailability ([2]; human, in vivo): approximately 45%
Extracellular HBV DNA (HBV GT C; Colchicine 1 nM): 7.06 Log copies/mL
Extracellular HBsAg (HBV GT C; Colchicine 1 nM): 23.1 IU/mL
Intracellular HBV DNA (HBV GT C; Colchicine 1 nM): 250511 copies/100 ng DNA
Intracellular cccDNA (HBV GT C; Colchicine 1 nM): 217 copies/100 ng DNA
Extracellular HBeAg (HBV GT C; Colchicine 1 nM): 14.7 C.O.I
Extracellular HBV DNA (HBV GT C; Colchicine 2 nM): 7.06 Log copies/mL
Extracellular HBsAg (HBV GT C; Colchicine 2 nM): 23.5 IU/mL
Intracellular HBV DNA (HBV GT C; Colchicine 2 nM): 235131 copies/100 ng DNA
Intracellular cccDNA (HBV GT C; Colchicine 2 nM): 207 copies/100 ng DNA
Extracellular HBeAg (HBV GT C; Colchicine 2 nM): 16.2 C.O.I
Extracellular HBV DNA (HBV GT C; Colchicine 3.9 nM): 7.16 Log copies/mL
Extracellular HBsAg (HBV GT C; Colchicine 3.9 nM): 26.7 IU/mL
Intracellular HBV DNA (HBV GT C; Colchicine 3.9 nM): 282895 copies/100 ng DNA
Intracellular cccDNA (HBV GT C; Colchicine 3.9 nM): 247 copies/100 ng DNA
Extracellular HBeAg (HBV GT C; Colchicine 3.9 nM): 19.2 C.O.I
Extracellular HBV DNA (HBV GT C; Colchicine 7.8 nM): 7.06 Log copies/mL
Extracellular HBsAg (HBV GT C; Colchicine 7.8 nM): 25.5 IU/mL
Intracellular HBV DNA (HBV GT C; Colchicine 7.8 nM): 270324 copies/100 ng DNA
Intracellular cccDNA (HBV GT C; Colchicine 7.8 nM): 227 copies/100 ng DNA
Extracellular HBeAg (HBV GT C; Colchicine 7.8 nM): 17.4 C.O.I
Extracellular HBV DNA (HBV GT C; Colchicine 15.6 nM): 6.86 Log copies/mL
Extracellular HBsAg (HBV GT C; Colchicine 15.6 nM): 25.2 IU/mL
Intracellular HBV DNA (HBV GT C; Colchicine 15.6 nM): 256994 copies/100 ng DNA
Intracellular cccDNA (HBV GT C; Colchicine 15.6 nM): 261 copies/100 ng DNA
Extracellular HBeAg (HBV GT C; Colchicine 15.6 nM): 16.3 C.O.I
Extracellular HBV DNA (HBV GT C; Colchicine 31.3 nM): 6.06 Log copies/mL
Extracellular HBsAg (HBV GT C; Colchicine 31.3 nM): 2.17 IU/mL
Intracellular HBV DNA (HBV GT C; Colchicine 31.3 nM): 52249 copies/100 ng DNA
Intracellular cccDNA (HBV GT C; Colchicine 31.3 nM): 80 copies/100 ng DNA
Extracellular HBeAg (HBV GT C; Colchicine 31.3 nM): 3.6 C.O.I
Extracellular HBV DNA (HBV GT C; Colchicine 62.5 nM): 4.86 Log copies/mL
Extracellular HBsAg (HBV GT C; Colchicine 62.5 nM): 0.12 IU/mL
Intracellular HBV DNA (HBV GT C; Colchicine 62.5 nM): 9638 copies/100 ng DNA
Intracellular cccDNA (HBV GT C; Colchicine 62.5 nM): +
Extracellular HBeAg (HBV GT C; Colchicine 62.5 nM): 0.7 C.O.I
Extracellular HBV DNA (HBV GT C; Colchicine 125 nM): 4.86 Log copies/mL
Extracellular HBsAg (HBV GT C; Colchicine 125 nM): <0.05 IU/mL
Intracellular HBV DNA (HBV GT C; Colchicine 125 nM): 8341 copies/100 ng DNA
Intracellular cccDNA (HBV GT C; Colchicine 125 nM): +
Extracellular HBeAg (HBV GT C; Colchicine 125 nM): 0.3 C.O.I
Extracellular HBV DNA (HBV GT C; Colchicine 250 nM): 4.86 Log copies/mL
Extracellular HBsAg (HBV GT C; Colchicine 250 nM): <0.05 IU/mL
Intracellular HBV DNA (HBV GT C; Colchicine 250 nM): 9187 copies/100 ng DNA
Intracellular cccDNA (HBV GT C; Colchicine 250 nM): +
Extracellular HBeAg (HBV GT C; Colchicine 250 nM): 0.2 C.O.I
Extracellular HBV DNA (HBV GT C; Colchicine 500 nM): 4.86 Log copies/mL
Extracellular HBsAg (HBV GT C; Colchicine 500 nM): <0.05 IU/mL
Intracellular HBV DNA (HBV GT C; Colchicine 500 nM): 9019 copies/100 ng DNA
Intracellular cccDNA (HBV GT C; Colchicine 500 nM): +
Extracellular HBeAg (HBV GT C; Colchicine 500 nM): 0.2 C.O.I
Extracellular HBV DNA (HBV GT C; Colchicine 1000 nM): 4.86 Log copies/mL
Extracellular HBsAg (HBV GT C; Colchicine 1000 nM): <0.05 IU/mL
Intracellular HBV DNA (HBV GT C; Colchicine 1000 nM): 8717 copies/100 ng DNA
Intracellular cccDNA (HBV GT C; Colchicine 1000 nM): 29 copies/100 ng DNA
Extracellular HBeAg (HBV GT C; Colchicine 1000 nM): 0.2 C.O.I
anti-HBV efficacy (HBV GT C): anti-HBV efficacy in a dose dependent manner
patients failed (response rate) (chronic Hepatitis B; pilot study): 3 of 7
sustained response, treated patients (chronic Hepatitis B; two-center trial, 4 of 6 treated patients): 66.6%
mortality [3]: 100%
